Patent US6852735B1, “Siastatin B derivatives having a glycosidase inhibitory activity and processes for producing the same” (Zaidan Hojin Biseibutsu Kagaku Kenkyu Kai, priority 1998, dated 2005)

Tests used:
Format in all cases: biochemical
[1] = system: β-D-mannosidase (from snail); assay: β-mannosidase inhibition (Test Example 5); conditions: for inhibition of β-D-mannosidase, in words: summary of Table 1; for 50% inhibiory concentration (IC50) Enzyme F: β-D-mannosidase from snail, substrate p-nitrophenyl-β-D-mannoside, sodium acetate buffer pH 4.5
Procedure: (§1) Thus, 0.5 mL of 0.025M citrate-phosphate buffer (pH 4.0), 0.1 mL of the same buffer containing 10 mM p-nitro-phenyl-N-acetyl-α-D-galactosaminide dissolved therein, and 0.1 mL of either water or an aqueous solution containing as the test compound any one of the compounds of the formulae (I), (V) and (X) according to this invention were mixed with each other and pre-incubated in a 96-wells titer plate at 37° C. for 10 minutes. After the completion of the pre-incubation, to the pre-incubated mixture was added 0.01 mL of 0.025 M citrate-phosphate buffer containing α-N-acetyl-galactosaminidase originated from chicken liver (a product of Sigma Company) which was dissolved in said buffer as a glycosidase to be tested. Thereafter, the enzymatic reaction was conducted at 37° C. for 30 minutes.
(§2) After the enzymatic reaction, to the reaction solution was added 1.0 mL of 0.3M glycine—sodium hydroxide buffer (pH 10.5), in order to terminate the enzymatic reaction. Thereafter, the absorbance [designated as value (a)] of light at 405 nm of the resulting reaction solution was measured. Concurrently, measurement was made of the absorbance [designated as value (b)] at 405 nm of the reaction solution as obtained in the control test where the enzymatic reaction was conducted without addition of the test compound. Further, measurements were made of the absorbance [designated as values (a′)] and the absorbance [[designated as values (b′)] at 405 nm of the solutions as obtained in the blank test and the control test, respectively, where the enzymatic reaction was not conducted in the assay test. The rate of inhibition to […] was calculated by the equation: [1-(a-a′)/(b-b′)]×100.
(§3) The test results obtained are summarized as IC50 value in Table 1 below.
This Test Example is a test example for determining the α-mannosidase or β-mannosidase-inhibitory activity of the compounds according to this invention.
The evaluation of the β-mannosidase-inhibitory activity was conducted according to a modification of the method described in the “Journal of Biological Chemistry”, 242, p.5474 (1967).
Namely, the test was conducted in the same manner as the test for the enzyme-inhibitory activity test described in Test Example 1, but with using α-mannosidase from jack bean or β-mannosidase from snail (both enzymes are products of Sigma Company) as the glycosidase enzyme, with using 0.05 M sodium acetate—acetate buffer (pH 4.5) as the buffer, and with using p-nitrophenyl-α-D-mannoside or p-nitrophenyl-β-D-mannoside as the substrate. Furthermore, absorbances of light were measured in the same manner as in Test Example 1. IC50 values of the test compound capable of giving the 50% inhibition to the enzymes were calculated.

[2] = target: α-D-glucosidase (from yeast); assay: α-glucosidase inhibition (Test Example 4); conditions: for 50% inhibiory concentration (IC50) Enzyme H: α-D-glucosidase from yeast, substrate p-nitrophenyl-α-D-glucoside; for inhibition of α-D-glucosidase, in words: summary of Table 1
Procedure: as §1, §2, §3
This Test Example is a test example for determining the α-glucosidase or β-glucosidase-inhibitory activity of the compound of the formula (I), (V) or (X) according to this invention.
The evaluation of the β-glucosidase-inhibitory activity was conducted according to a modification of the method described in the “Agricultural and Biological Chemistry”, 26, p.203 (1962).
Namely, the test was conducted in the same manner as the test for the enzyme-inhibitory activity described in Test Example 1, but with using α-glucosidase originated from yeast or β-glucosidase originated from almond (both enzymes are products of Sigma Company) as the glycosidase enzyme, and with using p-nitro-phenyl-α-D-glucoside or p-nitrophenyl-β-D-glucoside as the substrate. Furthermore, absorbances of light were measured in the same manner as in Test Example 1, and IC50 values of the test compound capable of giving the 50% inhibition to the enzyme were calculated.

[3] = system: α-D-galactosidase (from Aspergillus niger); assay: α-galactosidase inhibition (Test Example 3); conditions: for 50% inhibiory concentration (IC50) Enzyme C: α-D-galactosidase from Aspergillus niger, substrate p-nitrophenyl-α-D-galactoside
Procedure: as §1, §2, §3
This Test Example is a test example for determining the α-galactosidase or β-galactosidase-inhibitory activity of the compound of the formula (I), (V) or (X) according to this invention.
The evaluation of the α-galactosidase or β-galactosidase-inhibitory activity was conducted according to a modification of the method described in the “Journal of Biological Chemistry”, 240, p.2468 (1965).
Namely, the test was conducted in the same manner as the test for the enzyme-inhibitory activity described in Test Example 1, but with using α-galactosidase or β-galactosidase (products of by Sigma Company) originated from Aspergillus niger, as the glycosidase enzyme, and with using p-nitrophenyl-α-D-galactoside and p-nitrophenyl-β-D-galactoside as the substrate. Furthermore, absorbances of light at 405 nm were measured in the same manner as in Test Example 1. IC50 values of the test compound capable of giving the 50% inhibition to the enzymes were calculated.

[4] = system: β-N-acetylglucosaminidase (from bovine epididymis); assay: β-N-acetylglucosaminidase inhibition (Test Example 2); conditions: for inhibition of N-acetylglucosaminidase, in words: summary of Table 1; for 50% inhibiory concentration (IC50) Enzyme B: β-N-acetylglucosaminidase from bovine epididymis, substrate p-nitrophenyl-N-acetyl-β-D-glucosaminide
Procedure: as §1, §2, §3
This Test Example is a test example for determining the N-acetylglucosaminidase-inhibitory activity of the compound of the formula (I), (V) or (X) according to this invention.
The evaluation of the N-acetylglucosaminidase-inhibitory activity was conducted according to a modification of the method described in the “Methods in Enzymology”, 28, p.772 (1972).
Namely, the test was conducted in the same manner as the test for the N-acetylgalactosamnidase-inhibitory activity as described above, but with using […] (a product of Sigma Company) originated from bovine epididymis, as the glycosidase enzyme to be tested, and with using p-nitrophenyl-N-acetyl-β-D-glucosaminide as the substrate. Furthermore, absorbances of light at 405 nm were measured in the same manner as described in […]. IC50 value of the test compound capable of giving the 50% inhibition to β-N-acetyl-glucosaminidase was calculated.

SMILES	inhibition of β-D-mannosidase, in words [1]	50% inhibiory concentration (IC50) Enzyme F [1] [µg/mL]	50% inhibiory concentration (IC50) Enzyme H [2] [µg/mL]	inhibition of α-D-galactosidase, in words ([3]; summary of Table 1)	50% inhibiory concentration (IC50) Enzyme C [3] [µg/mL]	inhibition of N-acetylglucosaminidase, in words [4]	50% inhibiory concentration (IC50) Enzyme B [4] [µg/mL]	inhibition of α-D-glucosidase, in words [2]
O=C(N[C@H]1NC[C@H](CO)[C@H](O)[C@@H]1O)C(F)(F)F [Formula (I), 6-deacetamido-3-decarboxy-3-hydroxymethyl-6-trifluoroacetamido-siastain B]	inhibit strongly	38	>100	inhibit strongly	0.1	inhibit strongly	22	
CC(=O)NC1NCC(CO)C(O)C1O (stereo not drawn) [Formula (V), 3-decarboxy-4-epi-3-hydroxymethyl-siastain B]	inhibit strongly	10	7		>100	inhibit strongly	3	inhibit strongly
O=C(N[C@H]1NC[C@H](CO)[C@@H](O)[C@@H]1O)C(F)(F)F [Formula (X), 6-deacetamido-3-decarboxy-4-epi-3-hydroxymethyl-6-trifluoroacetamido-siastain B]	inhibit strongly	1	0.06		>100		>100	inhibit strongly
